These compounds were tested against T1, GST-tagged-Wee1 kinase (Homo sapiens, UniProt P30291) (assay: Wee1 time-resolved fluorescence equilibrium binding assay (displacement of Oregon Green-labeled ATP-competitive kinase probe)). Details: read-out: Wee-1 inhibition (Ki).
T1 construct: purchased Carnabio (Carna Biosciences) 05-177
How it was run: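 Ki values derive from competitive displacement, under equilibrium, of a fast-reversible ATP-site Oregon Green kinase probe from GST-tagged Wee1, detected by time-resolved fluorescence.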

T1 sequence (P30291 whole entry): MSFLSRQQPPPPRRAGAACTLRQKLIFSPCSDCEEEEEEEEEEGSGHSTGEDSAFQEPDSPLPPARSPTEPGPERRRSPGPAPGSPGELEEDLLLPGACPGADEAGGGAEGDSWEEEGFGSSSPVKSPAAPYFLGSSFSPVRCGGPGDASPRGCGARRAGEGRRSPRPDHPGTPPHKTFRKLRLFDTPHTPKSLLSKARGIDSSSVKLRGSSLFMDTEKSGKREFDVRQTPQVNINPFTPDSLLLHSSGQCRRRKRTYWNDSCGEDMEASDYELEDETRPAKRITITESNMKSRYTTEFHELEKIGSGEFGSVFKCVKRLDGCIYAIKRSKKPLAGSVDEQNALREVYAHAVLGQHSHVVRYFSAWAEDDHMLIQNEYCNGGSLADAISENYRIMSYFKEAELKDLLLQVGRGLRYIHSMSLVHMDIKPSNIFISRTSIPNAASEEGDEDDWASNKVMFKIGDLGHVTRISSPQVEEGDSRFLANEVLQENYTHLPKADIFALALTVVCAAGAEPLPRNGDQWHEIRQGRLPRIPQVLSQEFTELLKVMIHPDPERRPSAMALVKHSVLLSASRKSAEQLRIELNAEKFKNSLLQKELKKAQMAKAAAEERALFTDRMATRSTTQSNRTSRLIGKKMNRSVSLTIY

SMILES	Ki
CCN(CC)CCCOc1ccc(Nc2ncc3c(=O)n(-c4c(Cl)cccc4Cl)c4nccn4c3n2)cc1F [Example 149, 6-(2,6-dichlorophenyl)-2-({4-[3-(diethylamino)propoxy]-3-fluorophenyl}amino)imidazo[1,2-a]pyrimido[5,4-e]pyrimidin-5(6H)-one]	< 10 nM
CN1CCc2cc(Nc3ncc4c(=O)n(-c5c(Cl)cccc5Cl)c5nccn5c4n3)ccc2C1(C)C [Example 150, 6-(2,6-dichlorophenyl)-2-[(1,1,2-trimethyl-1,2,3,4-tetrahydroisoquinolin-6-yl)amino]imidazo[1,2-a]pyrimido[5,4-e]pyrimidin-5(6H)-one]	< 10 nM
O=c1c2cnc(Nc3ccc(N4C[C@@H]5C[C@H]4CN5)cc3)nc2n2ccnc2n1-c1c(Cl)cccc1Cl [Example 151, 2-({4-[(1S,45)-2,5-diazabicyclo[2.2.1]hept-2-yl]phenyl}amino)-6-(2,6-dichlorophenyl)imidazo[1,2-a]pyrimido[5,4-e]pyrimidin-5(6H)-one]	< 10 nM
CN1Cc2cc(Nc3ncc4c(=O)n(-c5c(Cl)cccc5Cl)c5nccn5c4n3)ccc2C(C)(C)C1 [Example 152, 6-(2,6-dichlorophenyl)-2-[(2,4,4-trimethyl-1,2,3,4-tetrahydroisoquinolin-7-yl)amino]imidazo[1,2-a]pyrimido[5,4-e]pyrimidin-5(6H)-one]	< 10 nM
O=c1c2cnc(Nc3ccc(N4CCC(F)(F)CC4)cc3)nc2n2ccnc2n1-c1c(Cl)cccc1Cl [Example 153, 6-(2,6-dichlorophenyl)-2-{[4-(4,4-difluoropiperidin-1-yl)phenyl]amino}imidazo[1,2-a]pyrimido[5,4-e]pyrimidin-5(6H)-one]	< 10 nM
O=c1c2cnc(Nc3ccc(N4CCCC(F)(F)C4)cc3)nc2n2ccnc2n1-c1c(Cl)cccc1Cl [Example 154, 6-(2,6-dichlorophenyl)-2-{[4-(3,3-difluoropiperidin-1-yl)phenyl]amino}imidazo[1,2-a]pyrimido[5,4-e]pyrimidin-5(6H)-one]	< 10 nM
CC(C)N1CCN(c2ccc(Nc3ncc4c(=O)n(-c5c(Cl)cccc5Cl)c5nccn5c4n3)cc2F)CC1 [Example 155, 6-(2,6-dichlorophenyl)-2-({3-fluoro-4-[4-(propan-2-yl)piperazin-1-yl]phenyl}amino)imidazo[1,2-a]pyrimido[5,4-e]pyrimidin-5(6H)-one]	< 10 nM
O=c1c2cnc(Nc3ccc(N4CCNCC4)c(C(F)(F)F)c3)nc2n2ccnc2n1-c1c(Cl)cccc1Cl [Example 156, 6-(2,6-dichlorophenyl)-2-{[4-(piperazin-1-yl)-3-(trifluoromethyl)phenyl]amino}imidazo[1,2-a]pyrimido[5,4-e]pyrimidin-5(6H)-one]	< 10 nM
CC(C)c1cc(Nc2ncc3c(=O)n(-c4ccccc4Cl)c4nccn4c3n2)ccc1N1CCN(C)CC1 [Example 157, 6-(2-chlorophenyl)-2-{[4-(4-methylpiperazin-1-yl)-3-(propan-2-yl)phenyl]amino}imidazo[1,2-a]pyrimido[5,4-e]pyrimidin-5(6H)-one]	< 10 nM
CC(=O)N1CCN(c2ccc(Nc3ncc4c(=O)n(-c5c(F)cccc5Cl)c5nccn5c4n3)cc2)CC1 [Example 158, 2-{[4-(4-acetylpiperazin-1-yl)phenyl]amino}-6-(2-chloro-6-fluorophenyl)imidazo[1,2-a]pyrimido[5,4-e]pyrimidin-5(6H)-one]	< 10 nM
CC1(C)CNCc2cc(Nc3ncc4c(=O)n(-c5c(F)cccc5Cl)c5nccn5c4n3)ccc21 [Example 159, 6-(2-chloro-6-fluorophenyl)-2-[(4,4-dimethyl-1,2,3,4-tetrahydroisoquinolin-7-yl)amino]imidazo[1,2-a]pyrimido[5,4-e]pyrimidin-5(6H)-one]	10 to 100 nM
O=c1c2cnc(Nc3ccc4c(c3)CNCC43CC3)nc2n2ccnc2n1-c1c(Cl)cc(F)cc1Cl [Example 160, 6-(2,6-dichloro-4-fluorophenyl)-2-(2′,3′-dihydro-1′H-spiro[cyclopropane-1,4′-isoquinolin]-7′-ylamino)imidazo[1,2-a]pyrimido[5,4-e]pyrimidin-5(6H)-one]	< 10 nM
CCN1Cc2cc(Nc3ncc4c(=O)n(-c5ccccc5Cl)c5nccn5c4n3)ccc2C(C)(C)C1 [Example 161, 6-(2-chlorophenyl)-2-[(2-ethyl-4,4-dimethyl-1,2,3,4-tetrahydroisoquinolin-7-yl)amino]imidazo[1,2-a]pyrimido[5,4-e]pyrimidin-5(6H)-one]	< 10 nM
CC1(C)CN(CC(F)(F)F)Cc2cc(Nc3ncc4c(=O)n(-c5ccccc5Cl)c5nccn5c4n3)ccc21 [Example 162, 6-(2-chlorophenyl)-2-{[4,4-dimethyl-2-(2,2,2-trifluoroethyl)-1,2,3,4-tetrahydroisoquinolin-7-yl]amino}imidazo[1,2-a]pyrimido[5,4-e]pyrimidin-5(6H)-one]	10 to 100 nM
CC1(C)CN(Cc2ccc(-n3ccnc3)cc2)Cc2cc(Nc3ncc4c(=O)n(-c5ccccc5Cl)c5nccn5c4n3)ccc21 [Example 163, 6-(2-chlorophenyl)-2-({2-[4-(1H-imidazol-1-yl)benzyl]-4,4-dimethyl-1,2,3,4-tetrahydroisoquinolin-7-yl}amino)imidazo[1,2-a]pyrimido[5,4-e]pyrimidin-5(6H)-one]	< 10 nM
CC1(C)CN(CC2CCN(Cc3ccccc3)CC2)Cc2cc(Nc3ncc4c(=O)n(-c5ccccc5Cl)c5nccn5c4n3)ccc21 [Example 164, 2-({2-[(1-benzylpiperidin-4-yl)methyl]-4,4-dimethyl-1,2,3,4-tetrahydroisoquinolin-7-yl}amino)-6-(2-chlorophenyl)imidazo[1,2-a]pyrimido[5,4-e]pyrimidin-5(6H)-one]	< 10 nM
CC(=O)N1Cc2cc(Nc3ncc4c(=O)n(-c5c(Cl)cc(F)cc5Cl)c5nccn5c4n3)ccc2C2(CC2)C1 [Example 165, 2-[(2′-acetyl-2′,3′-dihydro-1′H-spiro[cyclopropane-1,4′-isoquinolin]-7′-yl)amino]-6-(2,6-dichloro-4-fluorophenyl)imidazo[1,2-a]pyrimido[5,4-e]pyrimidin-5(6H)-one]	< 10 nM
O=c1c2cnc(Nc3ccc(N4CCC(O)CC4)cc3)nc2n2ccnc2n1-c1c(Cl)cccc1Cl [Example 166, 6-(2,6-dichlorophenyl)-2-{[4-(4-hydroxypiperidin-1-yl)phenyl]amino}imidazo[1,2-a]pyrimido[5,4-e]pyrimidin-5(6H)-one]	< 10 nM
O=c1c2cnc(Nc3ccc(C4CCCCC4)cc3)nc2n2ccnc2n1-c1c(Cl)cccc1Cl [Example 167, 2-[(4-cyclohexylphenyl)amino]-6-(2,6-dichlorophenyl)imidazo[1,2-a]pyrimido[5,4-e]pyrimidin-5(6H)-one]	10 to 100 nM
O=c1c2cnc(Nc3ccc(C4CCNC4)cc3)nc2n2ccnc2n1-c1c(Cl)cccc1Cl (centres unmarked) [Example 168, 6-(2,6-dichlorophenyl)-2-{[4-(pyrrolidin-3-yl)phenyl]amino}imidazo[1,2-a]pyrimido[5,4-e]pyrimidin-5(6H)-one]	< 10 nM
O=c1c2cnc(Nc3ccc(N4CCOCC4)cc3)nc2n2ccnc2n1-c1c(Cl)cccc1Cl [Example 169, 6-(2,6-dichlorophenyl)-2-{[4-(morpholin-4-yl)phenyl]amino}imidazo[1,2-a]pyrimido[5,4-e]pyrimidin-5(6H)-one]	< 10 nM
CC1(C)CN(CC(F)(F)F)Cc2cc(Nc3ncc4c(=O)n(-c5c(Cl)cccc5Cl)c5nccn5c4n3)ccc21 [Example 170, 6-(2,6-dichlorophenyl)-2-{[4,4-dimethyl-2-(2,2,2-trifluoroethyl)-1,2,3,4-tetrahydroisoquinolin-7-yl]amino}imidazo[1,2-a]pyrimido[5,4-e]pyrimidin-5(6H)-one]	10 to 100 nM
O=C(C1CC1)N1Cc2cc(Nc3ncc4c(=O)n(-c5c(Cl)cc(F)cc5Cl)c5nccn5c4n3)ccc2C2(CC2)C1 [Example 171, 2-{[2′-(cyclopropylcarbonyl)-2′,3′-dihydro-1′H-spiro[cyclopropane-1,4′-isoquinolin]-7′-yl]amino}-6-(2,6-dichloro-4-fluorophenyl)imidazo[1,2-a]pyrimido[5,4-e]pyrimidin-5(6H)-one]	< 10 nM
CS(=O)(=O)N1Cc2cc(Nc3ncc4c(=O)n(-c5c(Cl)cc(F)cc5Cl)c5nccn5c4n3)ccc2C2(CC2)C1 [Example 172, 6-(2,6-dichloro-4-fluorophenyl)-2-{[2′-(methylsulfonyl)-2′,3′-dihydro-1′H-spiro[cyclopropane-1,4′-isoquinolin]-7′-yl]amino}imidazo[1,2-a]pyrimido[5,4-e]pyrimidin-5(6H)-one]	< 10 nM
O=c1c2cnc(Nc3ccc(N4CCNCC4)nc3)nc2n2ccnc2n1-c1c(Cl)cc(F)cc1Cl [Example 173, 6-(2,6-dichloro-4-fluorophenyl)-2-{[6-(piperazin-1-yl)pyridin-3-yl]amino}imidazo[1,2-a]pyrimido[5,4-e]pyrimidin-5(6H)-one]	< 10 nM
O=C1CNCCN1c1ccc(Nc2ncc3c(=O)n(-c4c(Cl)cccc4Cl)c4nccn4c3n2)cc1 [Example 174, 6-(2,6-dichlorophenyl)-2-{[4-(2-oxopiperazin-1-yl)phenyl]amino}imidazo[1,2-a]pyrimido[5,4-e]pyrimidin-5(6H)-one]	< 10 nM
O=c1c2cnc(Nc3ccc(N4C[C@H]5C[C@@H]4CN5)cc3)nc2n2ccnc2n1-c1c(Cl)cccc1Cl [Example 175, 2-({4-[(1R,4R)-2,5-diazabicyclo[2.2.1]hept-2-yl]phenyl}amino)-6-(2,6-dichlorophenyl)imidazo[1,2-a]pyrimido[5,4-e]pyrimidin-5(6H)-one]	< 10 nM
CC(C)c1cc(Nc2ncc3c(=O)n(-c4c(Cl)cccc4Cl)c4nccn4c3n2)ccc1N1CCN(C)CC1 [Example 176, 6-(2,6-dichlorophenyl)-2-{[4-(4-methylpiperazin-1-yl)-3-(propan-2-yl)phenyl]amino}imidazo[1,2-a]pyrimido[5,4-e]pyrimidin-5(6H)-one]	< 10 nM
CN1C(C)(C)c2ccc(Nc3ncc4c(=O)n(-c5c(Cl)cccc5Cl)c5nccn5c4n3)cc2C1(C)C [Example 177, 6-(2,6-dichlorophenyl)-2-[(1,1,2,3,3-pentamethyl-2,3-dihydro-1H-isoindol-5-yl)amino]imidazo[1,2-a]pyrimido[5,4-e]pyrimidin-5(6H)-one]	< 10 nM
